Results as given in US20200079785A1, “MITOMYCIN C PRODRUG LIPOSOME FORMULATIONS AND USES THEREOF” (MALLINCKRODT LLC, priority 2016, published 2020).
Like-named read-outs stand apart in the source and are kept apart here.

Key:
[1] = Plasma pharmacokinetics of liposomal MMC prodrugs in mice; assay type: in vivo
Excerpt: The plasma pharmacokinetics of liposomal MMC prodrugs and free MMC were studied in mice. The liposomal MMC prodrugs are described in Table 6 below.
Animals were randomized into five (5) groups, each with 18 mice.
Three animals were sacrificed at the appropriate time points post injection. Blood samples were taken for pharmacokinetic analysis at each time point (Table 8). Approximately 0.4 mls of blood was collected, via cardiac puncture under isoflurane anesthesia, into a lithium heparin tube and placed on ice. The samples were spun to obtain the plasma, which were stored in microfuge tubes at −80° C.

A549 NSCLC xenografts = assay: In vivo anti-tumor activity, A549 xenografts; set-up: species or system mice; details: single IV, 5 mg/kg MMC-eq
[2] = test system: HT29 colorectal adenocarcinoma xenografts
Protocol: The anti-tumor activity of liposomal MMC prodrugs were evaluated in female Hsd:Athymic Nude-Foxn1^nu/nu mice (approximately 25 g) implanted subcutaneous with HT29 colorectal adenocarcinoma cells or (1×10^6). Once tumors reached a median size of 200 mm^3, animals were randomized into five (5) groups, normalized by tumor volume. Animals without tumors were not included in this study. […]
According to NCI euthanasia guidelines, mice were removed from the study if they loss 20% of their initial bodyweight or became moribund or if their tumor volume exceeded 2500 mm^3 or if the tumor ulcerated. Tumor volume was measured with the TumorImager system at least twice per week and calculated with the TumorManager software, and mice were weighed twice per week.
Tumor volume was expressed as mean and median and plotted as a function of time. Animals removed from the study due to excess tumor size beyond 2500 mm^3 had values carried forward as 2500 mm^3 in the median plot only. Groups with less than 50% animals remaining were not carried forward for further tumor analysis. The following parameters were determined from tumor size and survival analysis: tumor growth inhibition (TGI), tumor growth delay (TGD), and median survival. The ratio of treated versus control tumor volume (% T/C) was calculated as: […]
Statistical significance of observed differences between growth curves were evaluated by One-Way ANOVA followed by posthoc test if significant.
In another study, mice bearing HT29 colorectal adenocarcinoma xenografts were given a single intravenous dose of liposomal MMC Prodrugs (MP-3854 or MP-3861), free MMC, or saline and the results are summarized FIGS. 7 and 8 and Table 10 below.
In another study, mice bearing HT29 colorectal adenocarcinoma xenografts were given a single intravenous dose of liposomal MMC Prodrug (W-3854) or saline and the results are summarized FIG. 10 and Table 12 below.
In a further study, mice bearing HT29 colorectal adenocarcinoma xenografts were given a single intravenous dose of liposomal MMC Prodrug (W-3854) or saline and the results are summarized FIG. 11 and Table 13 below.

[3] = in vivo; cited from earlier work
[4] = test system: HT29 colorectal adenocarcinoma cells; assay: In vitro cell kill assay; assay type: cell-based
Protocol: MCC, MMC prodrugs, and liposomal MMC prodrugs were evaluated in an in vitro cell kill assay. MMC, MMC prodrug, and liposomal MMC prodrug samples were diluted in DPBS as a starting concentration, then serially diluted 1:3 in DPBS (i.e., 70 μL:140 μL). HT29 colorectal adenocarcinoma cells were plated at 100 μL/well in 10% FBS/McCoy's 5a+Pen/Strep media at 5×10^4 cells/mL, based on approximated 24-h doubling time. The plates were incubated at 37° C. overnight to allow the cells to adhere. Next, 10 μL/well treatment dose of MMC, MMC prodrug, or liposomal MMC prodrug was added to the wells, and the plates were incubated at 37° C. […] After a 2-h incubation, the media was removed from the plate and 100 μL/well drug-free media was added before returning to the incubator. After a 24-h incubation, the media was removed from the plate and 100 μL/well drug-free media was added before returning to the incubator. After a 72-h incubation, the media was removed from all of the plates and 100 μL/well drug-free media with 10% Alamar was added to each and returned to the incubator.
Cell viability was measured using WST-1 cell proliferation colorimetric assay or AlamarBlue. 50 mL of 10% WST/McCoy's 5a media was prepared from 5 mL of WST+45 mL of media; 50 mL of 10% Alamar Blue/McCoy's 5a media was prepared from 5 mL of Alamar Blue+45 mL of media. 10% WST/McCoy's 5a media or 10% Alamar Blue/McCoy's 5a was added, and the plates were returned to the incubator to develop, followed by subsequent reading of the fluorescence or absorbance.

[5] = Conversion of MMC prodrug to MMC in cysteine solution (HPLC); assay type: physicochemical; details: cysteine solution pH 6.95, 37° C., after 2 h
[6] = Table 10, single IV, 3 mg/kg MMC-eq
[7] = Table 10, single IV, 5 mg/kg MMC-eq
[8] = 2 h drug incubation, read-out: IC50
[9] = 24 h drug incubation, read-out: IC50
[10] = 72 h drug incubation, read-out: IC50

CO[C@@]12[C@H](COC(N)=O)C3=C(C(=O)C(C)=C(N)C3=O)N1C[C@@H]1N[C@@H]12 [MMC, Mitomycin C]
Half-Life ([1]; Mitomycin C in plasma after high dose of MP-3854 (25 mg/kg MMC-eq)): LLD | Half-Life ([1]; Mitomycin C in plasma after low dose of MP-3854 (5 mg/kg MMC-eq)): LLD | % T/C (A549 NSCLC xenografts): 90% | Median Survival (A549 NSCLC xenografts): 76 days | TGD (1000 mm3 Days) (A549 NSCLC xenografts): 32 days | % T/C ([2]; Table 9, 2 mpk q7d x3): 72% | % T/C ([2]; Table 9, 3 mpk q7d x3): 13% | % T/C ([2]; Table 9, 5 mpk q7d x3): 5% | % T/C ([2]; Table 9, 5 mpk single): 77% | % T/C [2, 6]: 83% | Median Survival [2, 6]: 48 days | TGD (1000 mm3 Days) [2, 6]: 5.2 days | % T/C [2, 7]: 48% | Median Survival [2, 7]: 54 days | TGD (1000 mm3 Days) [2, 7]: 9.5 days | half-life alpha [3]: 8 min | half-life terminal [3]: 48 min | IC50 ([4]; Homo sapiens, HT-29, 2 h): 1830 nM | IC50 ([4]; Homo sapiens, HT-29, 24 h): 175 nM | IC50 ([4]; Homo sapiens, HT-29, 48 h): 109 nM | IC50 ([4]; Homo sapiens, HT-29, 72 h): 199 nM

CO[C@@]12[C@H](COC(N)=O)C3=C(C(=O)C(C)=C(N)C3=O)N1C[C@H]1[C@@H]2N1C(=O)OCCSSCCN1CCCCC1 [MP-3827]
IC50 [4, 8]: 5930 nM | IC50 [4, 9]: 2640 nM | IC50 ([4]; 48 h drug incubation, read-out: IC50): 1690 nM | IC50 [4, 10]: 1290 nM

CO[C@@]12[C@H](COC(N)=O)C3=C(C(=O)C(C)=C(N)C3=O)N1C[C@H]1[C@@H]2N1C(=O)OCc1ccc(SSCCN2CCCCC2)cc1 [MP-3832, 4-((2-(piperidin-1-yl)ethyl)disulfanyl)benzyl(1aS,8S,8aR,8bS)-6-amino-8-((carbamoyloxy)methyl)-8a-methoxy-5-methyl-4,7-dioxo-1a,4,7,8,8a,8b-hexahydroazirino[2′,3′:3,4]pyrrolo[1,2-α]indole-1(2H)-carboxylate]
IC50 [4, 8]: 4700 nM | IC50 [4, 9]: 1440 nM | IC50 [4, 10]: 1710 nM

CO[C@@]12[C@H](COC(N)=O)C3=C(C(=O)C(C)=C(N)C3=O)N1C[C@H]1[C@@H]2N1C(=O)OCCSSCCN1CCN(C)CC1 [MP-3854, 2-((2-(4-methylpiperazin-1-yl)ethyl)disulfanyl)ethyl (1aS,8S,8aR,8bS)-6-amino-8-((carbamoyloxy)methyl)-8a-methoxy-5-methyl-4,7-dioxo-1a,4,7,8,8a,8b-hexahydroazirino[2′,3′:3,4]pyrrolo[1,2-a]indole-1(2H)-carboxylate]
conversion of prodrug [5]: complete conversion | MMC generated ([5]; HPLC 360 nm): 92 Area % | IC50 ([4]; Homo sapiens, HT-29, 2 h drug incubation, read-out: IC50): 41400 nM | IC50 ([4]; Homo sapiens, HT-29, 24 h drug incubation, read-out: IC50): 4170 nM | IC50 ([4]; Homo sapiens, HT-29, 72 h drug incubation, read-out: IC50): 3090 nM
